The values below come from article PMC5813016 (Nature Communications, 2018).

The target in assay [1] is T1, Adrenergic Alpha 1a (Homo sapiens, UniProt P35348).
T1 construct: expressed in transfected cells
T1 sequence (P35348 1-466): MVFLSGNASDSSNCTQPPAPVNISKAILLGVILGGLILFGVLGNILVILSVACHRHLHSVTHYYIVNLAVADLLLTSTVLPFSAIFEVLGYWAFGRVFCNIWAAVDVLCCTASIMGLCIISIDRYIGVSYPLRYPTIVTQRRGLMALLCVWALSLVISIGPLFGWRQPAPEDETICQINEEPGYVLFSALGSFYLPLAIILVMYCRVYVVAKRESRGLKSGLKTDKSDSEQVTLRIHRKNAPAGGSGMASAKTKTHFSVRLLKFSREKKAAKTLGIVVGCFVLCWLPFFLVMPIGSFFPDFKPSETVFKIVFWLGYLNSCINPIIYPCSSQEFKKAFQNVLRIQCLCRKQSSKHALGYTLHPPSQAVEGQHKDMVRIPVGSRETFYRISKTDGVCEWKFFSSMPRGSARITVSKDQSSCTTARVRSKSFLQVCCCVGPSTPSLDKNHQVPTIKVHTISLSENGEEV
In words: FLIPR calcium assay, adrenergic alpha1a. It counts as cell-based. As to conditions: for EC50: read-out: Adrenergic Alpha 1a, Agonist EC50; for IC50: vs EC80 of agonist, read-out: Adrenergic Alpha 1a, Antagonist IC50. On the procedure: (§1) Activation of the receptor by an agonist in this assay system results in an increase in intracellular calcium levels which is measured using a calcium specific dye. Cells were plated at 7500 cells per well (50 µl per well) in black walled clear bottomed 384-well plates 24 h prior to running the assay. […] Compound solution (10 µl) was added to each well by the FLIPR Tetra® instrument to measure agonist activity of the compound by measuring the change in fluorescence from baseline over a 60 s period (Ex […]). Subsequently 10 µl of agonist (EC80 value) was added to each well by the FLIPR Tetra® instrument to evaluate antagonist activity, with the change in fluorescence from baseline being measured over a 60 s period.
(§2) In vitro data analysis: Agonist/antagonist curves were plotted from individual experiments, and EC50/IC50 values were determined using a four parameter logistic fit.

For assay [2], the target named is Human PDE3A1 (Homo sapiens, UniProt Q14432). In words: PDE SPA assay, PDE3A1. The class given is biochemical. On the procedure:
PDE assays: The PDE assays measures the conversion of 3′, 5′-[^3H] cAMP to 5′-[^3H] AMP (for PDE 3A1 and 4D3) or 3′, 5′-[^3H] cGMP to 5′-[^3H] GMP (for PDE 5A1) by the relevant PDE enzyme subtype. Yttrium silicate (YSi) scintillation proximity (SPA) beads bind selectively to 5′-[^3H] AMP or 5′-[^3H] […] The assay was performed in white walled opaque bottom 384-well plates. One microliter of compound in dimethyl sulfoxide was added to each well. Enzyme solution was then added to each well in buffer (in mM: Trizma, 50 (pH7.5); MgCl2, 1.3 mM). […] The reaction was terminated by the addition of 20 µl of PDE YSi SPA beads (Perkin Elmer). Following an additional 8 h incubation period the plates were read on a MicroBeta radioactive plate counter (Perkin Elmer) to determine radioactive counts per well.
as §2

In assay [3] the target is T2, Dopamine Transporter (Homo sapiens, UniProt Q01959).
T2 construct: expressed in transfected cells
T2 sequence (Q01959 whole entry): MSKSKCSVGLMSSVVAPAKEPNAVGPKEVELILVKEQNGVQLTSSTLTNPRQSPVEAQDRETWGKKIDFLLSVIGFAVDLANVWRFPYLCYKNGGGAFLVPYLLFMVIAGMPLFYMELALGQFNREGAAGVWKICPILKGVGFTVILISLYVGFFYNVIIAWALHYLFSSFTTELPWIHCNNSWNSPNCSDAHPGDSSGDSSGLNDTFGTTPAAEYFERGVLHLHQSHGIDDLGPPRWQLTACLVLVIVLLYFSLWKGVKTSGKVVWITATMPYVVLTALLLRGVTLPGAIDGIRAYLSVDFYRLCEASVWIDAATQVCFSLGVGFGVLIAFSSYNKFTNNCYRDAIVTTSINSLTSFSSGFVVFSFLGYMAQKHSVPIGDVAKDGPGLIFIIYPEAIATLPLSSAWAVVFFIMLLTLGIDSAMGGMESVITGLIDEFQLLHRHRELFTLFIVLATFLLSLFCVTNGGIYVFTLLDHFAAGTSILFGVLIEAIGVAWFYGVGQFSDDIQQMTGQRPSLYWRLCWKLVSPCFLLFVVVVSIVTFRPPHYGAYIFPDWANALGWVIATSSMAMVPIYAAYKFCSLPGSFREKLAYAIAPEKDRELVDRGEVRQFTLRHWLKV
Kind of assay: Amine transporter dye uptake assay, DAT. The class given is cell-based. On the procedure: (§3) HBSS/HEPES containing compound (5 µl) was added to the wells of black walled clear bottomed 384-well plate. Transporter dye (25 µl) (Molecular Devices; Cat # R8174) was added to each well. Finally 15,000 cells (20 µl) stably expressing the amine transporter of interest were added to each well and the plate is incubated at 37 °C for 30 min (DAT) or 60 min (NET and SERT). The plate is transferred to the FLIPR Tetra® instrument and the fluorescence of each well was measured (Ex […]). The level of fluorescence measured directly relates to the level of uptake of the dye labelled amine, with a reduction in levels being related to an inhibition of the respective transporter.
as §2

Assay [4] addresses T3, Adrenergic Beta 2 (Homo sapiens, UniProt P07550).
T3 construct: expressed in transfected cells
Kind of assay: Beta arrestin enzyme fragment complementation assay, adrenergic beta 2. The class given is cell-based. As to conditions: for EC50: read-out: Adrenergic Beta 2, Agonist EC50; for IC50: vs EC80 of agonist, read-out: Adrenergic Beta 2, Antagonist IC50. On the procedure: (§4) Recruitment of β-arrestin to the GPCR, results in a functional enzyme that generates a chemiluminescent signal when substrate is added. Cells were plated at 5000 cells per well (40 µl per well) in black walled clear bottomed 384-well plates 24 h prior to running the assay. Medium was removed from the plates. For agonist studies 15 µl of HBSS/HEPES containing compound was added to the cells and the plate was incubated at room temperature for 90 min. For antagonist studies 15 µl of HBSS/HEPES containing compound was added to the cells and was incubated for 15 min prior to the addition of 15 µl of an EC80 concentration of agonist. The plate was subsequently incubated at room temperature for 90 min. Both assays were terminated by addition of 15 µl of a Beta-Glo® solution (Promega). Following an additional 30 min incubation the luminescence of each well was measured to determine the level of receptor activation.
as §2

For assay [5], the target named is T4, Norepinephrine Transporter (Homo sapiens, UniProt P23975).
T4 construct: expressed in transfected cells
T4 sequence (P23975 whole entry, species assumed): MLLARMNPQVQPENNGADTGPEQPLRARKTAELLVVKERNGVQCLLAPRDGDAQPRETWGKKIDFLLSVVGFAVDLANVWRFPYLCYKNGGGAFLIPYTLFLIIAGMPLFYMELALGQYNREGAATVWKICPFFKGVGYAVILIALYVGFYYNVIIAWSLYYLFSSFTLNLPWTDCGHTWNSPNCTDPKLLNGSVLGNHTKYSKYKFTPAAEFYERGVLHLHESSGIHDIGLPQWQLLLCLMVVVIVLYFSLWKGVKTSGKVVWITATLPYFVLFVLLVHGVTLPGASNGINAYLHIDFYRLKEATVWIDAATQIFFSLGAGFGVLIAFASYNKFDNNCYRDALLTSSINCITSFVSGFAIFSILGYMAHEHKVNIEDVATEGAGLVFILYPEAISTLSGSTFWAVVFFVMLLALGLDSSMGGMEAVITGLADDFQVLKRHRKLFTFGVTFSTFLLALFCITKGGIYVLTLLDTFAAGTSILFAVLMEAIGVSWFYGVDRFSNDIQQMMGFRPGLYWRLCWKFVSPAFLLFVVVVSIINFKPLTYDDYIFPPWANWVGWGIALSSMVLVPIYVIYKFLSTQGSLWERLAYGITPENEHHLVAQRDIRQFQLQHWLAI
In words: Amine transporter dye uptake assay, NET. It counts as cell-based. The settings on record: read-out: Norepinephrine Transporter, Inhibitor IC50. On the procedure:
as §3, §2

The target of assay [6] is rat D1R (rD1R) (Rattus norvegicus, UniProt P18901). In words: Rat D1R radioligand binding ([3H]-SCH23390, HEK293).
Sequence of rat D1R (rD1R) (P18901 whole entry): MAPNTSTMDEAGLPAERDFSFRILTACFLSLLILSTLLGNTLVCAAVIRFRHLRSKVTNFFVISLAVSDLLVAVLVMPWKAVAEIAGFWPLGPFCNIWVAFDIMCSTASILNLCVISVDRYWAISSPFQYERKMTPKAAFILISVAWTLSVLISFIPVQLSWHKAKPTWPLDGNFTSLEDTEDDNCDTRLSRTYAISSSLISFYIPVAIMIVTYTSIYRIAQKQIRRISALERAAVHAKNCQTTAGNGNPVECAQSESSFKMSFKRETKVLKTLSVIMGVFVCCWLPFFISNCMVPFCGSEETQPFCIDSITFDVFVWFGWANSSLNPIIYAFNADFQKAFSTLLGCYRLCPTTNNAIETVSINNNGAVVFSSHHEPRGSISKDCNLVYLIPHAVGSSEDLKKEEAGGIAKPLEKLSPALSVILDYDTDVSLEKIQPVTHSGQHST
Experimental: Binding assays were performed using stably expressed human D1R LTK, HEK293 rat D1R (rD1R), CHO human D2R (hD2R), CHO human D3R, and Millipore CHEM-1 human D5R (HTS129M) cell lines or primary striatal tissue from cynomolgus monkey brain. […] These ligand and tissue concentrations were used in time course studies to determine linearity and equilibrium conditions for binding. Binding reached equilibrium with the specified amount of tissue by 30 min at 37 °C for hD1R, rD1R, mD1R, 20 min at 37 °C for D2R and D3R and 60 min at room temperature for D5R. […] Membrane radioligand levels were determined by liquid scintillation counting of the filter plates in 50 µl Ecolume. […] Ki values were calculated according to the Cheng-Prusoff equation.
Assay [7] deals with T5, Cannabinoid 1 (Homo sapiens, UniProt P21554).
T5 construct: expressed in transfected cells
T5 sequence (P21554 whole entry): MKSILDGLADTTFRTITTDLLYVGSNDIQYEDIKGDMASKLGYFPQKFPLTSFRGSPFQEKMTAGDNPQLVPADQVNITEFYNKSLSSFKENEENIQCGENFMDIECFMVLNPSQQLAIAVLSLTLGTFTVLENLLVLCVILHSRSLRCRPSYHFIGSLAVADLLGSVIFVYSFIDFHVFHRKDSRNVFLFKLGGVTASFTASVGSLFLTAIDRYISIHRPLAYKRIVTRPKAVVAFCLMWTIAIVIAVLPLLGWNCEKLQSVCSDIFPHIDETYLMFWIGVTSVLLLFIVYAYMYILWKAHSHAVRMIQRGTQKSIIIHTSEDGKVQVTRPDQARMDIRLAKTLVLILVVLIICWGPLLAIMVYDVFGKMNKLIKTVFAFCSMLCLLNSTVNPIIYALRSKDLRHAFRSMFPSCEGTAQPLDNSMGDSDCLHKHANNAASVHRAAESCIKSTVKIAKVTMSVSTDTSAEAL
Kind of assay: Beta arrestin enzyme fragment complementation assay, cannabinoid 1. It counts as cell-based. As to conditions: for EC50: read-out: Cannabinoid 1, Agonist EC50; for IC50: vs EC80 of agonist, read-out: Cannabinoid 1, Antagonist IC50. On the procedure: as §4, §2

In assay [8] the target is T6, Serotonin 2b (Homo sapiens, UniProt P41595).
T6 construct: expressed in transfected cells
T6 sequence (P41595 whole entry): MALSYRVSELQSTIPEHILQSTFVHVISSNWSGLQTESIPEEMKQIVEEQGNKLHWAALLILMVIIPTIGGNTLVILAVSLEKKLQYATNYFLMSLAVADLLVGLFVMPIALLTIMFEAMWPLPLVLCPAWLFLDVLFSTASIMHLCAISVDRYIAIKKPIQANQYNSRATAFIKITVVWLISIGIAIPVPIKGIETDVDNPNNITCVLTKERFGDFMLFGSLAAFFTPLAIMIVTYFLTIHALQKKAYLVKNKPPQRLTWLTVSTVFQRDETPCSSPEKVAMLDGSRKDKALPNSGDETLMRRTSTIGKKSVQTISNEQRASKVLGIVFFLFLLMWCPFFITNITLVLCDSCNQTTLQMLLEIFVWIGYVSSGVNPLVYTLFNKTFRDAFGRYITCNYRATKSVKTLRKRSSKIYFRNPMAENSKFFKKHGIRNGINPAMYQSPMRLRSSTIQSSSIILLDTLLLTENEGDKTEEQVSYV
Kind of assay: FLIPR calcium assay, serotonin 2b. It counts as cell-based. The settings on record: for EC50: read-out: Serotonin 2b, Agonist EC50; for IC50: vs EC80 of agonist, read-out: Serotonin 2b, Antagonist IC50. On the procedure:
as §1, §2

Assay [9] relates to human D1R S188A mutant. Kind of assay: cAMP assay, D1R mutant S188A. The settings on record: relative to wild-type D1R; each table line is one experiment (Experiment # 1-6).
In assay [10] the test system is human D1R F289A mutant. Kind of assay: cAMP assay, D1R mutant F289A. The settings on record: relative to wild-type D1R; each table line is one experiment (Experiment # 1-6). On the technique in general: Changes in cAMP serve as a functional read-out for many G protein-coupled receptors.
The test system of assay [11] is human D1R S188T mutant. Kind of assay: cAMP assay, D1R mutant S188T. The settings on record: relative to wild-type D1R; each table line is one experiment (Experiment # 1-6).

“And” between values parts separate entries of the source, which are not always exact repeats. Equal entries are not always repeated. Some results are limits rather than exact numbers.

T3 sequence (P07550 whole entry): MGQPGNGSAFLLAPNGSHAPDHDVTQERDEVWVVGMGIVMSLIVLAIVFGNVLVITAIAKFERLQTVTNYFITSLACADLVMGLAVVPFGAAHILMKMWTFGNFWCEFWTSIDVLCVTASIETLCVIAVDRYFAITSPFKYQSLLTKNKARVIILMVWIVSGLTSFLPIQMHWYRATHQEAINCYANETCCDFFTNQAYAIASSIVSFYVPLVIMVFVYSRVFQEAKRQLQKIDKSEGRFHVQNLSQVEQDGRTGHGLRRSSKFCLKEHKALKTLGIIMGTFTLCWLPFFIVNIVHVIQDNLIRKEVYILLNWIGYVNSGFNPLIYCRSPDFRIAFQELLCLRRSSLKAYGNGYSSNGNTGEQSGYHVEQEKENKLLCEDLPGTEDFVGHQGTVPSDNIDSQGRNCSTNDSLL
Sequence of Human PDE3A1 (Q14432 whole entry): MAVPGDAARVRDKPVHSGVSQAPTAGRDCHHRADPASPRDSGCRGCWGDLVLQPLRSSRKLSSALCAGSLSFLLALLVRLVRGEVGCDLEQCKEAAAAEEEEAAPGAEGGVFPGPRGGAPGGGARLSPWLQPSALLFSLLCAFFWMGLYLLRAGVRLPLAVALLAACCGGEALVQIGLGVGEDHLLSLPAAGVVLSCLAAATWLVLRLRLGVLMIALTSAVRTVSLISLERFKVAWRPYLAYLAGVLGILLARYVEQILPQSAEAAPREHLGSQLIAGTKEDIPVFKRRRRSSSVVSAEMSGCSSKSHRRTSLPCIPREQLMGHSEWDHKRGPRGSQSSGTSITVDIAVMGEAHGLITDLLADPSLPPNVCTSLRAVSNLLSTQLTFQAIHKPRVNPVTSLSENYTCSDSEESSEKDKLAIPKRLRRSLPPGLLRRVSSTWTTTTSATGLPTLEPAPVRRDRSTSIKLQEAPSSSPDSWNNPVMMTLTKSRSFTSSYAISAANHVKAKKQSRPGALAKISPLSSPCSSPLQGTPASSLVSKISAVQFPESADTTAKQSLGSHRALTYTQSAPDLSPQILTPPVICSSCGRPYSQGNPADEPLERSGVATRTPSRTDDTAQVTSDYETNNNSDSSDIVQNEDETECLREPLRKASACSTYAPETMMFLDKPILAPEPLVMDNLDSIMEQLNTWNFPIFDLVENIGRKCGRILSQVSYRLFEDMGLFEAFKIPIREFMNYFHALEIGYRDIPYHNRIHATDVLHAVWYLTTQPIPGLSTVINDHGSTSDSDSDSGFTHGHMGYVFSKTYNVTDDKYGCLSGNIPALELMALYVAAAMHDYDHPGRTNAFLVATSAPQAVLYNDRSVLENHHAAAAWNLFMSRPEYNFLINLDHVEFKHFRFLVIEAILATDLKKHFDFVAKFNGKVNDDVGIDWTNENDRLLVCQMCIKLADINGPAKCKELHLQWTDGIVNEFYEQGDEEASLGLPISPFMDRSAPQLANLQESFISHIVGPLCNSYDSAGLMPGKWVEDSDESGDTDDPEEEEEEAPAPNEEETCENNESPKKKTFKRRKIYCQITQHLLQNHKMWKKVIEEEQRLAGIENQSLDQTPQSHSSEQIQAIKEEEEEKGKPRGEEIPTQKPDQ

With `Cc1cc(Oc2nccc3occc23)ccc1-n1c(C)nc2cnccc21` [PF-8294], the EC50 in assay [1], in [4], in [7] and in [8] was more than 10 µM throughout. The IC50 (commonly the concentration at which inhibition is half-maximal) in assay [1] was more than 10 µM; in [2], more than 10 µM; in assay [3] it was more than 10 µM; in assay [4], more than 10 µM; in assay [5], more than 10 µM; in assay [7] it was more than 8.76 µM. For the same molecule, the IC50 in assay [8] is more than 10 µM. Further, the Ki (as a rule, a measure of affinity in units of concentration, obtained from inhibition or displacement) in [6] worked out at 0.164 ± 0.164 µM.
Take `Cc1cc(Oc2nccc3occc23)ccc1-c1c(C)ncnc1C` [PF-8871]: the “fold shift of cAMP functional potency, S188A (EC50 mutant/ EC50 WT)” value (“fold shift … S188A (EC50 mutant/ EC50 WT)” below) in [9] came to 0.6. For the same molecule, in assay [10], the “fold shift of cAMP functional potency, F289A (EC50 mutant/ EC50 WT)” value (“fold shift … F289A (EC50 mutant/ EC50 WT)” for short) amounted to 27.9. Also, the concentration for a half-maximal effect (EC50) in [1], in assay [4], in assay [7] and in assay [8] was more than 10 µM each time. Besides, the IC50 in [1], in assay [2], in assay [3], in assay [4], in assay [5] and in assay [7] was more than 10 µM in each case. The IC50 in [8] is more than 10 µM. The molecule further came in with a Ki in assay [6] of 0.021 ± 0.003 µM. Moreover, in assay [11], the “fold shift of cAMP functional potency, S188T (EC50 mutant/ EC50 WT)” value (from here on “fold shift … S188T (EC50 mutant/ EC50 WT)”) is listed as 1.8.
For the molecule `Cc1cc(Oc2cccc(O)c2O)ccc1-c1c(C)ncnc1C` [PF-1437], in assay [9], the “fold shift … S188A (EC50 mutant/ EC50 WT)” value is 1.0 and 0.8 and 0.7. Also, the “fold shift … F289A (EC50 mutant/ EC50 WT)” value in assay [10] was 12.4 and 16.0. The “fold shift … S188T (EC50 mutant/ EC50 WT)” value in assay [11] is 0.6 and 0.9.
For `Cc1cc(Oc2nccc3occc23)ccc1-c1c(C)ncc2nccn12` [PF-6142], the “fold shift … S188A (EC50 mutant/ EC50 WT)” value in [9] is 2.3 and 2.0. Further, the “fold shift … F289A (EC50 mutant/ EC50 WT)” value in [10] was 32.3 and 44.7. The EC50 in assay [1], in assay [4], in assay [7] and in assay [8] was more than 10 µM each time. The IC50 in assay [1] is 9.1 µM; in assay [2], 5.12 µM; in assay [3] it was more than 10 µM; in assay [4] it was more than 10 µM; in [5], more than 10 µM; in assay [7] it was 2.08 µM. Further, in assay [8], the IC50 is more than 10 µM. In [6], this molecule yielded a Ki of 0.018 ± 0.004 µM. Further, the “fold shift … S188T (EC50 mutant/ EC50 WT)” value in assay [11] was 1.3 and 1.7.
Take `Cc1cc(Oc2nccc3occc23)ccc1-c1c(C)cnnc1C` [PF-1119]: the EC50 in [1], in assay [4], in [7] and in assay [8] was more than 10 µM throughout. In addition, the IC50 was more than 10 µM in assay [1]; 9.21 µM in [2]; more than 10 µM in [3]; more than 10 µM in assay [4]; more than 10 µM in assay [5]; 6.6 µM in [7]. Besides, the IC50 in assay [8] is more than 10 µM.
